# Numbers after ± are expanded uncertainties.
# Settings: Liquid, Closed cell (Static) method
SMILES,vapor or sublimation pressure (313.15 K) [kPa],vapor or sublimation pressure (323.15 K) [kPa],vapor or sublimation pressure (333.15 K) [kPa],vapor or sublimation pressure (343.15 K) [kPa],vapor or sublimation pressure (353.15 K) [kPa],vapor or sublimation pressure (363.15 K) [kPa],vapor or sublimation pressure (373.15 K) [kPa],vapor or sublimation pressure (383.15 K) [kPa],vapor or sublimation pressure (393.15 K) [kPa],vapor or sublimation pressure (351.81 K) [kPa],also measured
"Cc1ccc(C)o1 [2,5-dimethylfuran]",13.94 ± 0.15,21.54 ± 0.24,32.2 ± 0.35,46.74 ± 0.5,66.08 ± 0.71,91.23 ± 0.98,123.28 ± 1.3,163.43 ± 1.7,212.88 ± 2.3,,
CC(=O)CC(C)C [4-methylpentan-2-one],5.882 ± 0.063,9.417 ± 0.098,14.56 ± 0.15,21.82 ± 0.23,31.8 ± 0.33,45.19 ± 0.46,62.78 ± 0.64,85.44 ± 0.87,114.12 ± 1.2,30.29 ± 0.31,vapor or sublimation pressure (331.98 K): 13.85 ± 0.14 kPa; vapor or sublimation pressure (341.81 K): 20.72 ± 0.21 kPa; vapor or sublimation pressure (362.04 K): 43.51 ± 0.45 kPa; vapor or sublimation pressure (372.03 K): 60.56 ± 0.62 kPa; vapor or sublimation pressure (382.04 K): 82.62 ± 0.85 kPa; vapor or sublimation pressure (392.07 K): 110.74 ± 1.1 kPa
OCc1ccco1 [2-hydroxymethylfuran],0.242 ± 0.01,0.475 ± 0.02,0.89 ± 0.04,1.597 ± 0.019,2.755 ± 0.03,4.588 ± 0.049,7.398 ± 0.077,11.59 ± 0.12,17.68 ± 0.18,2.577 ± 0.029,vapor or sublimation pressure (273.11 K): 0.009 ± 0.001 kPa; vapor or sublimation pressure (283.08 K): 0.022 ± 0.001 kPa; vapor or sublimation pressure (293.16 K): 0.053 ± 0.002 kPa; vapor or sublimation pressure (303.09 K): 0.115 ± 0.003 kPa; vapor or sublimation pressure (323.16 K): 0.471 ± 0.019 kPa; vapor or sublimation pressure (331.87 K): 0.815 ± 0.033 kPa; vapor or sublimation pressure (333.17 K): 0.882 ± 0.036 kPa; vapor or sublimation pressure (341.85 K): 1.479 ± 0.06 kPa; vapor or sublimation pressure (343.19 K): 1.611 ± 0.019 kPa; vapor or sublimation pressure (353.2 K): 2.787 ± 0.031 kPa; vapor or sublimation pressure (362.09 K): 4.368 ± 0.047 kPa; vapor or sublimation pressure (363.2 K): 4.649 ± 0.05 kPa; vapor or sublimation pressure (372.04 K): 7.065 ± 0.074 kPa; vapor or sublimation pressure (382.09 K): 11.09 ± 0.12 kPa; vapor or sublimation pressure (392.15 K): 17.1 ± 0.18 kPa; vapor or sublimation pressure (402.18 K): 25.11 ± 0.26 kPa; vapor or sublimation pressure (412.11 K): 36.53 ± 0.38 kPa

# Reference: the NIST ThermoML archive (doi:10.1016/j.jct.2013.10.039)
